Measured values published in ChEMBL document CHEMBL1201862, “PubChem BioAssay data set” (2004).
Calls of active or inactive are those of the source.

Legend:
A-375 [1] = test: MITF: Counter assay: A375 proliferation Measured in Cell-Based System Using Plate Reader - 2084-03_Inhibitor_Dose_DryPowder_Activity. [Related pubchem assays (depositor defined):AID488944]; format: functional; conditions: Homo sapiens
A-375 [2] = test: proliferation inhibition in MITF-low A375 cells – cell-based, cherry-pick samples, set 2, counter-screen for MITF modulator project, dose response (AID 540335); format: functional; conditions: Homo sapiens
[3] = target: T1, Apoptotic protease-activating factor 1 (Homo sapiens, UniProt O14727); test: SAR analysis of small molecule Activators of Apaf-1 in a Fluorescent assay.; format: functional; conditions: read-out: EC50_Mean;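 also: caspase-3 cleavage of fluorogenic Rh110 DEVD substrate downstream of apoptosome activation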
T1 sequence (O14727 whole entry): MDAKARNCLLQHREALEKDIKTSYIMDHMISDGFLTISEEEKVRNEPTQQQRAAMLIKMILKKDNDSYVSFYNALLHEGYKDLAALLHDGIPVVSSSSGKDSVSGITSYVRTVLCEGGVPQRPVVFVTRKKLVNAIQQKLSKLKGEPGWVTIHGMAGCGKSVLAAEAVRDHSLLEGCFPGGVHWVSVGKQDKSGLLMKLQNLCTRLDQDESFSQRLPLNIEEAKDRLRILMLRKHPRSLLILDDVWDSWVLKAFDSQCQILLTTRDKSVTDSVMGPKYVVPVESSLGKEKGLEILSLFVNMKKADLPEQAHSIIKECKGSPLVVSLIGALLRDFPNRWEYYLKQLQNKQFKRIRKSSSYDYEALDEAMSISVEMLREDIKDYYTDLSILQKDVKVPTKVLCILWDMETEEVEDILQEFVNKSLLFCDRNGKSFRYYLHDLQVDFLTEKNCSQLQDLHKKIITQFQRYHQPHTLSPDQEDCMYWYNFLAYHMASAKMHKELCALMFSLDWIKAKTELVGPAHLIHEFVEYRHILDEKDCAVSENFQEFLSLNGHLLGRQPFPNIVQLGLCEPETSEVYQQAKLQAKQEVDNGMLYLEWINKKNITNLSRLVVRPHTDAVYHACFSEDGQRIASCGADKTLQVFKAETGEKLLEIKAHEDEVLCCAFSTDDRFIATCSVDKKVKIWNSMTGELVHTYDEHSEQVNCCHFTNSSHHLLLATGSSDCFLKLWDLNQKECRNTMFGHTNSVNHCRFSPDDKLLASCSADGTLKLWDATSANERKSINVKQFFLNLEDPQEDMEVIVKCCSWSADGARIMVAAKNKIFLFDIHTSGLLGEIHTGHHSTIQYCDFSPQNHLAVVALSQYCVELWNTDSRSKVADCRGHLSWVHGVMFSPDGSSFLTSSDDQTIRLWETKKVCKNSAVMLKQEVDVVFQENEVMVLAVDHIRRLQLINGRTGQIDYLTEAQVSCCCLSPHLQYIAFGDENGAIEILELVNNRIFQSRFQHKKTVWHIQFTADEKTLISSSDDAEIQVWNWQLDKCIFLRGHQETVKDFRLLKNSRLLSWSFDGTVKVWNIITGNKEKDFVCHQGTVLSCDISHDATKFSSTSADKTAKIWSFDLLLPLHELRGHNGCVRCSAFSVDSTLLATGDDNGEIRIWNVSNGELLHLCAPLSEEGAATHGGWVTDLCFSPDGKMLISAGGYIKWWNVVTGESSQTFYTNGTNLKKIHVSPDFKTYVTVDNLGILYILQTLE

[4] = target: T2, High affinity choline transporter 1 (Homo sapiens, UniProt Q9GZV3); test: human choline transporter blockers, potency – cell-based, 5-point CRC, membrane potential dye, dose response (AID 504840); format: functional
T2 sequence (Q9GZV3 whole entry): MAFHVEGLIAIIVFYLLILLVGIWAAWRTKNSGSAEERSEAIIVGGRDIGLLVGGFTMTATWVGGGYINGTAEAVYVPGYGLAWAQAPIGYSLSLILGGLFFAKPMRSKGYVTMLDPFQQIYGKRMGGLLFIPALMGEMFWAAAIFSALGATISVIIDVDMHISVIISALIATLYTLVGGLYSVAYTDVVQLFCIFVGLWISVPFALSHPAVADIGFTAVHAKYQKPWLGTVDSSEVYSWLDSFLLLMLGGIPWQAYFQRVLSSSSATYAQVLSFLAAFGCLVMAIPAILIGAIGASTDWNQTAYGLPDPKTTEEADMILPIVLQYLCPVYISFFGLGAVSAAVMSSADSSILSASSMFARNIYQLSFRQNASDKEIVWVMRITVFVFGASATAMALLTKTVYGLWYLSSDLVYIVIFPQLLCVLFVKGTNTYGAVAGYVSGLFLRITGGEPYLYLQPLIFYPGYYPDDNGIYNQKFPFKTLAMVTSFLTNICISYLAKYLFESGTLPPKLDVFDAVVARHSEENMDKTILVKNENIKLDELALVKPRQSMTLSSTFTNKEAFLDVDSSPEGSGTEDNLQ

[5] = target: T2, High affinity choline transporter 1; test: human choline transporter blockers, potency – cell-based, 10-point CRC, membrane potential dye, dose response (AID 588401); format: functional;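 also: membrane potential dye fluorescence of choline-evoked depolarization via CHT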
[6] = target: 26S proteasome non-ATPase regulatory subunit 14 (Homo sapiens, UniProt O00487); test: inhibition of proteasome subunit RPN11 – biochemical, fluorescence polarization, uHTS hits, confirmation (AID 602368); format: functional
[7] = target: Tyrosine-protein phosphatase non-receptor type 5 (Homo sapiens, UniProt P54829); test: PTPN5 enzyme inhibition – biochemical, fluorescence intensity, uHTS hits, confirmation (AID 602372); format: functional; conditions: read-out: IC50_Mean
[8] = target: T3, Carboxy-terminal domain RNA polymerase II polypeptide A small phosphatase 1 (Homo sapiens, UniProt Q9GZU7); test: CTDSP1 inhibitors, concentration-response, biochemical, absorbance readout, ultra-high-throughput screen actives (AID 540297); format: functional
T3 sequence (Q9GZU7 whole entry): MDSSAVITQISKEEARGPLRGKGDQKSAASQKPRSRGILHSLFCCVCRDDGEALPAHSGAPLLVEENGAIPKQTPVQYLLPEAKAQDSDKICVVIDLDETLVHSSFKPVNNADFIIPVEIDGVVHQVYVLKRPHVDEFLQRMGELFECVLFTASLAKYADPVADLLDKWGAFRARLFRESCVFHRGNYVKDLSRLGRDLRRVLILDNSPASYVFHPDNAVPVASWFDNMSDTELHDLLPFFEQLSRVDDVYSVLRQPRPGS

[9] = target: Tyrosine-protein phosphatase non-receptor type 11 (Homo sapiens, UniProt Q06124); test: PTPN11 enzyme inhibitors – biochemical, selectivity assay for STEP inhibitor project, dose response (AID 602367); format: functional; conditions: read-out: IC50_Mean
[10] = target: Dual specificity protein phosphatase 3 (Homo sapiens, UniProt P51452); test: VHR phosphatase inhibition, dose response, selectivity assay for STEP inhibitor project, biochemical (AID 602374); format: functional; conditions: read-out: IC50_Mean
Prothrombin = Prothrombin (Bos taurus, UniProt P00735); test: thrombin protease inhibitors – biochemical, fluorescence polarization, uHTS hits, dose response (AID 602369); format: functional
[11] = target: 72 kDa type IV collagenase (Homo sapiens, UniProt P08253); test: Dose Response validation of uHTS RPN11 inhibitor hits using a MMP-2 Fluorescence assay.; format: functional
[12] = target: T4, Tyrosine-protein phosphatase non-receptor type 22 (Homo sapiens, UniProt Q9Y2R2); test: lymphoid phosphatase LYP inhibitors – biochemical, selectivity assay for STEP inhibitor project, dose response (AID 624241); format: functional
T4 sequence (Q9Y2R2 whole entry): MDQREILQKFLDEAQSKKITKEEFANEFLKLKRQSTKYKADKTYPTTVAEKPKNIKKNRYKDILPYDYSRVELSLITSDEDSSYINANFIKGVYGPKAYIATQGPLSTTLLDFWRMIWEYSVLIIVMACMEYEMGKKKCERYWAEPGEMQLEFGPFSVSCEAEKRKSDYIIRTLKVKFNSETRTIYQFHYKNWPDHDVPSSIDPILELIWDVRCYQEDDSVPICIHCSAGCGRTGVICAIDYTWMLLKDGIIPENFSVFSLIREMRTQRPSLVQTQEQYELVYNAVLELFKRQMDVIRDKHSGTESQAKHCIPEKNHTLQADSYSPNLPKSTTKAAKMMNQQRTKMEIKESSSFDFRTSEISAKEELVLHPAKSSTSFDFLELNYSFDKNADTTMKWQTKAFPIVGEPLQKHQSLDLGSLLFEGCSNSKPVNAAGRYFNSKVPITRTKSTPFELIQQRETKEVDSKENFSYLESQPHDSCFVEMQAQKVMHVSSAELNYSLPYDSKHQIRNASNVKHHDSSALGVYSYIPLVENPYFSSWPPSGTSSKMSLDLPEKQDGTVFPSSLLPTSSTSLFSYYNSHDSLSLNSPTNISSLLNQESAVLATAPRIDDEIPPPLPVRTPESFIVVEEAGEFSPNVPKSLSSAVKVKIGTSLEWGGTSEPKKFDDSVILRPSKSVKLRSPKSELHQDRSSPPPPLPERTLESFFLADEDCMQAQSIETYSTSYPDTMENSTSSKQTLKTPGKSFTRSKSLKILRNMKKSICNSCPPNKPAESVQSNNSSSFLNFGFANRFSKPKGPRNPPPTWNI

Mu-type opioid receptor = Mu-type opioid receptor (Homo sapiens, UniProt P35372); format: functional, cell-based;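 also: U2OS cells with beta-arrestin recruitment to OPRM1 by beta-gal complementation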
[13] = target: 5-hydroxytryptamine receptor 2A (Mus musculus, UniProt P35363); format: functional, cell-based;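 also: CHO-K1 cells with tagged receptor and beta-arrestin; agonist potency measured as compound-induced activation of the receptor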
[14] = target: T5, Sentrin-specific protease 8 (Homo sapiens, UniProt Q96LD8); format: functional
T5 sequence (Q96LD8 whole entry): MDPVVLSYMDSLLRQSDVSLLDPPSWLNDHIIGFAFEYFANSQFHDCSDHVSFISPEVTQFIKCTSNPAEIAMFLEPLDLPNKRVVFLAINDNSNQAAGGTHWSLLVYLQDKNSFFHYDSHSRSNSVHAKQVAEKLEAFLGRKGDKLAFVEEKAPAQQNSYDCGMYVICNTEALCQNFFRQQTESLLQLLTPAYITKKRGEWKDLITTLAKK

[15] = target: T5, Sentrin-specific protease 8; format: functional; remark: listed apart in the source
Orexin receptor type 2 [16] = target: T6, Orexin receptor type 2 (Homo sapiens, UniProt O43614); test: Counterscreen assay for antagonists of the orexin 1 receptor (OX1R; HCRTR1): Homogeneous Time Resolved Fluorescence (HTRF)-based cell-based dose response assay for antagonists of the orexin 2 receptor (OX2R; HCRTR2), run by assay provider.; format: functional
T6 sequence (O43614 whole entry): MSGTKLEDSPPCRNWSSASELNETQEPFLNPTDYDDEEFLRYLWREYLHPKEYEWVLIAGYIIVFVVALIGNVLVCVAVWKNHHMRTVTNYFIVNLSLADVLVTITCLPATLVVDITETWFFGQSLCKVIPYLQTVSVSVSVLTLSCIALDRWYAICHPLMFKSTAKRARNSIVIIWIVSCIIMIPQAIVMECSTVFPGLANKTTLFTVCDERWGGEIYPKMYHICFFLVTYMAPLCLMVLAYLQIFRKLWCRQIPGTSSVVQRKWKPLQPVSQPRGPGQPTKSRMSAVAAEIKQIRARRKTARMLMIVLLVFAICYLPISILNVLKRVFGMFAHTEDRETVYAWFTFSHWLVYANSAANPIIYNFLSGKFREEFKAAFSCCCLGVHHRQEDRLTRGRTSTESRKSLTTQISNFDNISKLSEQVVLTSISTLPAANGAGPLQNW

Orexin receptor type 2 [17] = target: T6, Orexin receptor type 2; test: Counterscreen assay for antagonists of the orexin 1 receptor (OX1R; HCRTR1): Fluorescence-based cell-based dose response assay for antagonists of the orexin 2 receptor (OX2R; HCRTR2), run by assay provider.; format: functional

Tyrosine-protein phosphatase non-receptor type 11, sequence (Q06124 whole entry): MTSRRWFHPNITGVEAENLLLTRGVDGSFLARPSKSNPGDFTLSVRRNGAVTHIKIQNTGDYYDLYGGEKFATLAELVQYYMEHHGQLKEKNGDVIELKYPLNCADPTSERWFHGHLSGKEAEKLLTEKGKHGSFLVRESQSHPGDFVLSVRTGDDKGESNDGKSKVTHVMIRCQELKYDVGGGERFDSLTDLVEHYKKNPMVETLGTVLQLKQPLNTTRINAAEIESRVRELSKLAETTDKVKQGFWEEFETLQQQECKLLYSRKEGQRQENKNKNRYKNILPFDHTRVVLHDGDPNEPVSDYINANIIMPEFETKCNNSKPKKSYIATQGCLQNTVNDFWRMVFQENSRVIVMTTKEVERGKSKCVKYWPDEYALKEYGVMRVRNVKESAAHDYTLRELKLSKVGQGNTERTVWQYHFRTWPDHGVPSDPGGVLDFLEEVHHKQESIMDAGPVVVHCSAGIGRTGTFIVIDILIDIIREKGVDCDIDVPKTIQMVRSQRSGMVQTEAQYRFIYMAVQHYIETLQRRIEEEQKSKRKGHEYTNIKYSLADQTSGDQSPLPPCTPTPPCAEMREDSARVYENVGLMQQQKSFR
Mu-type opioid receptor, sequence (P35372 whole entry): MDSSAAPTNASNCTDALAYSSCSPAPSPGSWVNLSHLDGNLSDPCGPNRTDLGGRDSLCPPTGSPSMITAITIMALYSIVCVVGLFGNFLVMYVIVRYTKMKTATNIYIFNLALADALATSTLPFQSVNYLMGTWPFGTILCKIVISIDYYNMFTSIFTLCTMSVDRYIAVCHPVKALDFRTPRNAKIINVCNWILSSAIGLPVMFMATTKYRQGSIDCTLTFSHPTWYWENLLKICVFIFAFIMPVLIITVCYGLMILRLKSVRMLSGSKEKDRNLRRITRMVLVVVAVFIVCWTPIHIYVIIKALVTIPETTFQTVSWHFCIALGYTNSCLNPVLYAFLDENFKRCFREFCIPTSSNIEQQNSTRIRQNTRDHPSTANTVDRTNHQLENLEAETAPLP
72 kDa type IV collagenase, sequence (P08253 whole entry): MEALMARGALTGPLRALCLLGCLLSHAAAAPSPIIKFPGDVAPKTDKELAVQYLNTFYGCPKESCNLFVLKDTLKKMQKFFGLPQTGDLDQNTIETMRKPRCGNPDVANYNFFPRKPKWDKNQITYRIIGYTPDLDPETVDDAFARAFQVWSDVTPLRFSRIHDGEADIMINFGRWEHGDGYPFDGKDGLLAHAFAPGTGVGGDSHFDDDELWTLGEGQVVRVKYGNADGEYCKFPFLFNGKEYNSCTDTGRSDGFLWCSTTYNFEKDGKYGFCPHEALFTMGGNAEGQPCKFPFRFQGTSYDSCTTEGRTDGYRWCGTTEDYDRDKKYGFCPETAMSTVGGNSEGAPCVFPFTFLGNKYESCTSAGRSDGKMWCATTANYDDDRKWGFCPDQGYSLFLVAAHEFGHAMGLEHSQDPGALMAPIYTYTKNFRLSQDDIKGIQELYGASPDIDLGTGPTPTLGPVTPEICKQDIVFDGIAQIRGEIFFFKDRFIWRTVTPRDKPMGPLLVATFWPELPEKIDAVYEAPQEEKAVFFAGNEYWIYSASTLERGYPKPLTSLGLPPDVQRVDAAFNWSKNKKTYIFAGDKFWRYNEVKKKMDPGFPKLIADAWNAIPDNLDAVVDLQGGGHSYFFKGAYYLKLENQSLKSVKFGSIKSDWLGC
Tyrosine-protein phosphatase non-receptor type 5, sequence (P54829 whole entry, the tested form may be a part): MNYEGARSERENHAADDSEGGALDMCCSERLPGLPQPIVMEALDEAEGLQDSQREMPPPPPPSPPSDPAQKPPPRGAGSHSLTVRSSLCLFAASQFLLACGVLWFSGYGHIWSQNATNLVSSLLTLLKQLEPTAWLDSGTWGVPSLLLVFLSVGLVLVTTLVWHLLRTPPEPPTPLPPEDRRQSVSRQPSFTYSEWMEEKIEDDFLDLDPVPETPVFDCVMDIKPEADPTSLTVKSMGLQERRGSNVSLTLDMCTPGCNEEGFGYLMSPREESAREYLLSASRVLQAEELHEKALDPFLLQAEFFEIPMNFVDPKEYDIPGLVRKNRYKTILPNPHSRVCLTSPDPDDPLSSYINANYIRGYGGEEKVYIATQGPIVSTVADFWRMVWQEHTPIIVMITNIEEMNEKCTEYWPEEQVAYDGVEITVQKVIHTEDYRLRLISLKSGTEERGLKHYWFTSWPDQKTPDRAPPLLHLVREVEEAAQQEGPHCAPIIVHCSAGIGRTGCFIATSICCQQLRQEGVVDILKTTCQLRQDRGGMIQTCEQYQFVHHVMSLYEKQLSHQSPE
5-hydroxytryptamine receptor 2A, sequence (P35363 whole entry): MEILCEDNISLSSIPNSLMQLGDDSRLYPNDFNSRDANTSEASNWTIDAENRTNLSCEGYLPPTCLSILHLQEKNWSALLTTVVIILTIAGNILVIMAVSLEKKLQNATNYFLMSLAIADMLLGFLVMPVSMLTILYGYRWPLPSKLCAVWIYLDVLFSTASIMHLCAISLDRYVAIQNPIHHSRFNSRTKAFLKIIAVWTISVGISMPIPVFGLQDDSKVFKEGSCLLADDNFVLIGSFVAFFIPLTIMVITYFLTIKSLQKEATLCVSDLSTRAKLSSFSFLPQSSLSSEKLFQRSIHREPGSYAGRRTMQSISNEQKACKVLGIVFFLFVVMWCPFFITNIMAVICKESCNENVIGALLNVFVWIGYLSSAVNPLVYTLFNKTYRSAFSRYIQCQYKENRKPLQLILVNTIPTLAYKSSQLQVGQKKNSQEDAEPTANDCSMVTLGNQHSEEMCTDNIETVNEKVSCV
Dual specificity protein phosphatase 3, sequence (P51452 whole entry): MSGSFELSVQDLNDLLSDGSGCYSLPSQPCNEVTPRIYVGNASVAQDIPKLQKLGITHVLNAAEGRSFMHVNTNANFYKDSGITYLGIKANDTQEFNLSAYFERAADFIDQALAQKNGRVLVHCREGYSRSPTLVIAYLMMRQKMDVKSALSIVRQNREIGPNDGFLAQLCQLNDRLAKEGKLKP
26S proteasome non-ATPase regulatory subunit 14, sequence (O00487 whole entry): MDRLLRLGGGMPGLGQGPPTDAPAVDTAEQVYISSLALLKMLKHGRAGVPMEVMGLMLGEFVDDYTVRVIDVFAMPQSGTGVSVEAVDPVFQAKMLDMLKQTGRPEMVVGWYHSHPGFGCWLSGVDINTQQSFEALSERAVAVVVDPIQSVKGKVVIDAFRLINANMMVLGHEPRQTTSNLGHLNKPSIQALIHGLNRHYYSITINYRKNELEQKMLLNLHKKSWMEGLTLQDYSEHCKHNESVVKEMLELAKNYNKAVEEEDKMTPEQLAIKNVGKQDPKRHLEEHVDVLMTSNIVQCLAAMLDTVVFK

For `O=C(Nc1nc2ccsc2c(=O)s1)C1CCC1`, the AC50 (A-375 [1]) was > 35 µM (active), the AC50 (A-375 [2]) was > 35 µM (active) and the EC50 [3] was > 100 µM (inactive).
`O=C(NC1CCCCCCC1)c1ccc(CNc2c(N3CCOCC3)c(=O)c2=O)cc1` was tested, and the IC50 [4] was 0.875 µM (active) and the IC50 [5] was 2.01 µM (active).
With `Cc1nc(C(F)(F)F)ccc1C(=O)Nc1nc2ccsc2c(=O)s1` the EC50 [3] was > 100 µM (inactive).
For `O=C(N/N=C/c1cccnc1)c1ccc(NC(=O)c2cccc(Cl)c2)cc1`, the IC50 [6] was 22.7 µM (active), the IC50 [7] was 16.5 µM (active) and the IC50 [8] was 7.91 µM (active). The IC50 [9] was 5.05 µM (active), the IC50 [10] was 2.84 µM (active) and the IC50 (Prothrombin) was > 100 µM (inactive). For the same compound, the IC50 [11] was > 100 µM (inactive) and the IC50 [12] was 30.2 µM (inactive).
`O=C(CNCc1cccs1)Nc1cc(S(=O)(=O)N2CCCC2)ccc1Cl` was tested, and the EC50 (Mu-type opioid receptor) was 92.5 µM (inactive) and the EC50 [13] was 18.4 µM (inactive).
In the case of `CCC(=O)c1ccc(OCc2cn(CC(=O)c3ccc(O)cc3)nn2)cc1`, the IC50 [14] is reported as 12.5 µM (active) and the IC50 [15] is reported as 7.63 µM (active).
`COc1ccc(NS(=O)(=O)c2ccc(NC(=O)c3ccccc3Br)cc2)nn1` was tested, and the IC50 [4] was 10.3 µM (active) and the IC50 [5] was 5.01 µM (active).
With `CCOc1ccccc1C(=O)NCCCCNC(=O)c1ccccc1OCC` the IC50 (Orexin receptor type 2 [16]) was > 50 µM (inactive) and the IC50 (Orexin receptor type 2 [17]) was > 88.8 µM (inactive).
`COc1ccc(CN2CCN(C(C)C)C(CCO)C2)cc1Cn1cccn1` (stereo unspecified) was tested, and the IC50 [4] was 3.31 µM (active) and the IC50 [5] was 1.41 µM (active).
With `COc1ccc2c(c1)C(=O)N(c1ccccc1OC)C(=O)C2` the IC50 [14] was 15.4 µM (active) and the IC50 [15] was > 100 µM (inactive).
